Measurements taken from patent publication US4786755A, “Diphenic acid monoamides” (Warner-Lambert Company, priority 1986, dated 1988).

What follows are compounds tested against T1, human leukocyte 5-lipoxygenase (Homo sapiens, UniProt P09917) (assay: 5-Lipoxygenase Inhibitor in Human Leukocytes (5LOA1)). Conditions: 100 μM exogenous arachidonic acid; read-out: IC50 5LOA (100)*.
T1 construct: endogenous in cells; host or cells: leukocytes from fresh blood of normal adult men
T1 sequence (P09917 1-674): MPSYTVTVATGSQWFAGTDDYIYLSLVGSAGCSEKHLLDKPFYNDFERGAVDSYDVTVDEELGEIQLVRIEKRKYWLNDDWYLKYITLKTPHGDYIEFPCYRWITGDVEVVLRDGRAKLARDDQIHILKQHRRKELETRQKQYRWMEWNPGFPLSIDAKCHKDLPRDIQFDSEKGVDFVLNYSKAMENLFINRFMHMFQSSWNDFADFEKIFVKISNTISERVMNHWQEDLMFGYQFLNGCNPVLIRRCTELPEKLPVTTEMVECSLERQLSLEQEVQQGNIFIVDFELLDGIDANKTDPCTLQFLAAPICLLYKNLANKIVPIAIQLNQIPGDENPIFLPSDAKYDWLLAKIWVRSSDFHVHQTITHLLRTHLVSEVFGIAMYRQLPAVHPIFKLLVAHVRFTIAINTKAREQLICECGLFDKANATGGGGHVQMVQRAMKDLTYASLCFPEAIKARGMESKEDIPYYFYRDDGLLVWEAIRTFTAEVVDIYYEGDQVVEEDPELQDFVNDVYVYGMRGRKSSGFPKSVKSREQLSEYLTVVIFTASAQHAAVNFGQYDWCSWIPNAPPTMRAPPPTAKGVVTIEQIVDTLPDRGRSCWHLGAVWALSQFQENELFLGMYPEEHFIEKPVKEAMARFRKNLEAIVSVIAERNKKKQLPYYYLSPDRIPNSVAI
Type: cell-based
Text: To Evaluate the Effect of Each Compounds as a 5-Lipoxygenase Inhibitor in Comparison to Standard Reference Agents in Human Leukocytes (5LOA1)
The purpose of this assay is to evaluate the activity of each compound as an inhibitor of human leukocyte 5-lipoxygenase.
Arachidonic acid and calcium ionophore A23187 are obtained from Sigma (St. Louis, MO). Silica gel plates, GF are obtained from Analtech (Newark, DE). Arachidonic acid, (1-^14 C) and 5-HETE (^3 H), 5 (S)-hydroxy-6-trans,8,11,14-cis eicosatetraenoic acid, are obtained from New England Nuclear (Boston, MA). Six percent Dextran-70 in 0.9% NaCl is obtained from Cutter Labs (Berkeley, CA).
Preparation of Leukocytes
Fresh blood from normal adult men who had not received any drugs for at least the previous five days is obtained by the Community Research Clinic (WL/PD) using venipuncture and collected into heparinized vacuotainer tubes. To every 100 ml of pooled blood is added 25 ml of dextran solution (6% dextran -70 in 0.9% sodium chloride containing 3% dextrose) and this is mixed gently in a plastic cylinder. The mixture is left to stand at room temperature for at least 90 minutes. The upper layer which is rich in leukocytes and platelets is then carefully decanted into 50 ml plastic tubes and centrifuged at about 100×g for eight minutes in an IEC centrifuge and rotor number 269 (about 600 rpm). The supernatant fluid is discarded and the pellet is resuspended in 10 ml of 0.87% ammonium chloride for exactly two minutes. This procedure is to lyse completely contaminating red blood cells. Leukocytes are then separated by centrifugation for ten minutes. The pellet is washed three times by suspension in 20 ml PBS (sodium chloride, 7.1 g; Na2 HPO4, 1.15 g; KH2 PO4, 0.2 g, and KCl, 0.2 g/L) and centrifuged as before. The final pellet is suspended in PBS containing 0.87 mM CaCl2. Viability of the cells is then checked using trypan blue exclusion method and is found to be over 90%.
5-Lipoxygenase Enzyme Assay
Cells in suspension (0.98 ml) are incubated with or without test compounds for five minutes at 37° C. in a shaking water bath. At this time a 17 μl mixture is prepared per 1 ml of cell suspension: 100 mM arachidonic acid, 1 μl, 0.05 μCi ^14 C-arachidonic acid in 5 μl; 1 mM calcium ionophore A23187, 10 μl (1). This mixture is added and the incubation continued for five minutes. The reaction is stopped by adding four volumes of absolute ethanol and the mixture is kept in ice for 30 minutes. The floculated precipitate is separated by centrifugation at about 37,000×g for 20 minutes (Beckman Instruments rotor number 40). The alcohol extract is taken to dryness under a stream of nitrogen and the residue is dissolved in 100-200 μl absolute ethanol. At the time any turbidity is removed by centrifugation. An aliquot (25-50 μl) is applied onto 20×20 cm silica gel TLC plate and developed using the following solvent system: diethyl ether, petroleum ether (20°-40° C.), acetic acid (50:50:1 v/v). Zones of 1 cm apart are scraped from the TLC plate and transferred to mini-vials. Methanol (0.5 ml) is added to dissolve the radioactivity adsorbed to the silica gel and scintillation fluid (H.P., Beckman), 5 ml is then added and vials are counted in a liquid scintillation counter. A sample of ^3 H-5-HETE is applied and used for the identification of the formed 5-HETE.
Total radioactivity in the test as well as the control samples are normalized and the amount of 5-HETE present is calculated accordingly.
IC50 values are defined as the concentrations of test agents which caused a 50% inhibition of the formation of 5-HETE as compared to control and are determined by inspection of the concentration-response curves.

Question: Which IC50 does the source give for O=C(O)c1ccccc1-c1ccccc1C(=O)Nc1ccc(CCCc2ccc(Cl)c(Cl)c2)cc1 [Example 1, [1,1'-Biphenyl]-2-carboxylic acid, 2'-[[[4-[3-(3,4-dichlorophenyl)propyl]phenyl]amino]carbonyl]-] here?
Answer: Its IC50 is 9.6 µM.

Question: How did the IC50 turn out when O=C(O)c1ccccc1-c1ccccc1C(=O)Nc1ccc(CCc2ccc(Cl)c(Cl)c2)cc1 [Example 3, [1,1'-Biphenyl]-2-carboxylic acid, 2'-[[[4-[2-(3,4-dichlorophenyl)ethyl]phenyl]amino]carbonyl]-] was run?
Answer: The IC50 was 4.6 µM.

Question: With O=C(O)c1ccccc1-c1ccccc1C(=O)Nc1cccc(CCc2ccc(Cl)c(Cl)c2)c1 [Example 4, [1,1'-Biphenyl]-2-carboxylic acid, 2'-[[[3-[2-(3,4-dichlorophenyl)ethyl]phenyl]amino]carbonyl]-] as the compound, how does the IC50 read?
Answer: The IC50 was 9.3 µM.

Question: With CN(C(=O)c1ccccc1-c1ccccc1C(=O)O)c1ccc(CCc2ccc(Cl)c(Cl)c2)cc1 [Example 5, [1,1'-Biphenyl]-2-carboxylic acid, 2'-[[[4-[2-(3,4-dichlorophenyl)ethyl]phenyl]methylamino]carbonyl]-] as the compound, how does the IC50 read?
Answer: The IC50 was 40 µM.

Question: How did the IC50 turn out when COc1ccc(CCc2ccc(NC(=O)c3ccccc3-c3ccccc3C(=O)O)cc2)cc1OC [Example 7, [1,1'-Biphenyl]-2-carboxylic acid, 2'-[[[4-[2-(3,4-dimethoxyphenyl)ethyl]phenyl]amino]carbonyl]-] was run?
Answer: The IC50 was over 20 µM.

Question: CN(C(=O)c1ccccc1-c1ccccc1C(=O)O)c1ccc(CCc2ccc(Cl)cc2)cc1 [Example 8] was tested. Which IC50 did it give?
Answer: Its IC50 is over 20 µM.

Question: With O=C(O)c1ccccc1-c1ccccc1C(=O)Nc1ccc(CCc2ccc(Cl)cc2)cc1 [Example 11, [1,1'-Biphenyl]-2-carboxylic acid, 2'-[[4-[2-[(4-chlorophenyl)ethyl]phenyl]amino]carbonyl]-] as the compound, how does the IC50 read?
Answer: The IC50 was 12 µM.
